Source: patent US10167282B2, “1-(5-tert-butyl-2-aryl-pyrazol-3-yl)-3-[2-fluoro-4-[(3-oxo-4H-pyrido [2, 3-B]pyrazin- 8-yl)oxy]phenyl]urea derivatives as RAF inhibitors for the treatment of cancer” (CANCER RESEARCH TECHNOLOGY LIMITED, priority 2013, dated 2019)
Where two headings read alike, the source gives them in different places.

Experiments:
[1] = biological target: V600EBRAF; experiment: DELFIA kinase assay (BRAF V600E Kinase Assay); type: biochemical, human; conditions: for IC50: 100 μM ATP
Protocol: Compounds were assessed in a kinase assay performed according to the following protocol.
^V600EBRAF was generated by infection of SF9 insect cells cultured in SF-900 II medium (Invitrogen, Paisley, Scotland) with a baculovirus containing full-length human BRAF with an N-terminal histidine tag and purified by nickel-agarose affinity chromatography.
Full-length rabbit MEK1 protein was expressed with a GST tag at the N-terminus and a C-terminal histidine tag in Escherichia coli JM109 bacteria and purified by nickel-agarose affinity chromatography.
Combine 4950 μL of DKB and 50 μL of 2.5 mg/mL GST-MEK stock obtained as described above (to give […] of MEK per 40 μL). Then add 22.5 μL of BRAF stock obtained as described above to give ˜0.2 μL of BRAF per 40 μL.
100 mM ATP stock in distilled water, dilute to 500 μM to give 100 μM final concentration in assay.
3. Plate out 40 μL of DKB1 for all inhibitors (test compounds), DMSO control, and optionally other control compounds.
5. Add inhibitors (test compounds) at 0.5 μL per well according to desired plate layout.
8. Pre-incubate with test compounds for 10 minutes at room temperature with shaking.
9. Add 10 μL of 500 μM ATP stock, in DKB, to give 100 μM assay concentration.
10. Seal plates with TopSeal and incubate at room temperature with shaking for 45 minutes.
12. Add 50 μL per well of antibody mix and incubate for 1 hour at room temperature with shaking.
14. Add 100 μL DELFIA enhancement solution per well, cover in foil, and incubate at room temperature for 30 minutes with shaking.
15. Read on Victor plate reader (Perkin-Elmer, Turku, Finland) using Europium protocol.
Values for the blank (Empty Vector) are subtracted from all values. The DMSO controls are set as 100% activity and assay points (the response) are calculated as a percentage of the DMSO control. Data are plotted using Graphpad Prism software and a non-linear regression line is calculated using a variable slope sigmoidal dose-response equation: Y=Bottom+[Top−Bottom]/[1+10^((Log EC50−X)*HillSlope)] where X is the logarithm of concentration and Y is the response. The IC50 generated by this procedure is the concentration of the drug that produces a percentage control fluorescence value midway between the saturation, and zero-effect plateaus. Three independent assays are usually performed and the mean IC50 is reported.

[2] = system: hERG; type: cell-based, human; conditions: read-out: hERG Inhibition IC50
Protocol: Studies were conducted at Cyprotex Discovery in Cheshire, UK according to the contractor's protocol. The studies were performed on an IonWorks™ HT instrument (Molecular Devices Corporation), which automatically performs electrophysiology measurements in […] single cells simultaneously in a specialised 384-well plate (PatchPlate™). The cells used were Chinese hamster ovary (CHO) cells stably transfected with hERG (cell-line obtained from Cytomyx, UK). A single-cell suspension was prepared in extracellular solution (Dulbecco's phosphate buffered saline with calcium and magnesium pH 7-7.2) and aliquots added automatically to each well of a PatchPlate™. The cells were then positioned over a small hole at the bottom of each well by applying a vacuum beneath the plate to form an electrical seal. The vacuum was applied through a single compartment common to all wells which was filled with intracellular solution (buffered to pH 7.2 with HEPES). The resistance of each seal was measured via a common ground-electrode in the intracellular compartment and individual electrodes placed into each of the upper wells.
Electrical access to the cell was then achieved by circulating a perforating agent, amphotericin, underneath the PatchPlate™ and then measuring the pre-compound hERG current. An electrode was positioned in the extracellular compartment and a holding potential of −80 mV applied for 15 seconds. The hERG channels were then activated by applying a depolarising step to +40 mV for 5 seconds and then clamped at −50 mV for 4 seconds to elicit the hERG tail current, before returning to −80 mV for 0.3 seconds. […]. Quinidine, an established hERG inhibitor, was included as an experimental control. […]. The test compound was left in contact with the cells for 300 seconds before recording currents using the same voltage-step protocol as in the pre-compound scan. Each concentration was tested in 4 replicate wells.
Post-compound currents were expressed as a percentage of pre-compound currents and plotted against concentration for each compound. Where concentration-dependent inhibition was observed, the data were fitted to the following equation: y=(ymax−ymin)/(1+(x/x50)^s)+ymin.
y=(post-compound current/pre-compound current)×100;
x50=concentration required to inhibit current by 50% (IC50); and […]

[3] = system: mice with collagen-induced arthritis; conditions: cited from earlier work
[4] = biological target: PDGFRα; experiment: Z'-LYTE biochemical kinase assay; conditions: ATP 100 μM
Protocol: (§1) Activity Against Other Targets
(§2) Studies were conducted at Life Technologies in Paisley according to the contractor's protocol. TBAP-01 was dissolved in DMSO and assayed at final concentrations ranging from 10 μM to 0.5 nM in 1% DMSO, in the presence of an ATP concentration of 100 μM. IC50 values for test compounds were determined using the Z'-LYTE® biochemical assay employing a fluorescence-based, coupled-enzyme format based on the differential sensitivity of phosphorylated and non-phosphorylated peptides to proteolytic cleavage.

[5] = biological target: p38α; experiment: Z'-LYTE biochemical kinase assay; conditions: ATP 100 μM
Protocol: as §1, §2

[6] = biological target: PDGFRβ; experiment: Z'-LYTE biochemical kinase assay; conditions: ATP 100 μM
Protocol: as §1, §2

[7] = biological target: MET; experiment: Z'-LYTE biochemical kinase assay; conditions: ATP 100 μM
Protocol: as §1, §2

[8] = biological target: EGFR; experiment: Z'-LYTE biochemical kinase assay; conditions: ATP 100 μM
Protocol: as §1, §2

[9] = biological target: CRAF; experiment: Z'-LYTE biochemical kinase assay; conditions: ATP 100 μM
Protocol: as §1, §2

[10] = biological target: Lck; experiment: Z'-LYTE biochemical kinase assay; conditions: ATP 100 μM
Protocol: as §1, §2

[11] = biological target: KDR; experiment: Z'-LYTE biochemical kinase assay; conditions: ATP 100 μM
Protocol: as §1, §2

[12] = biological target: FGFR1; experiment: Z'-LYTE biochemical kinase assay; conditions: ATP 100 μM
Protocol: as §1, §2

[13] = biological target: p38γ; experiment: Z'-LYTE biochemical kinase assay; conditions: ATP 100 μM
Protocol: as §1, §2

[14] = biological target: Src; experiment: Z'-LYTE biochemical kinase assay; conditions: ATP 100 μM
Protocol: as §1, §2

[15] = system: TrkA; experiment: Kinase profiling, radioactive (33P-ATP) filter-binding assay; type: biochemical; conditions: at 1 μM
Protocol: as §1
(§3) Additional studies were conducted at The International Centre for Kinase Profiling in Dundee according to the contractor's protocol. TBAP-01 was dissolved in DMSO and assayed at a final concentration of 1 μM in 2% DMSO against 131 kinases. The assays were carried out using a radioactive (^33P-ATP) filter-binding assay.

[16] = system: DDR2; experiment: as above; type: biochemical; conditions: at 1 μM
Protocol: as §1, §3

[17] = system: Tie-2; experiment: as above; type: biochemical; conditions: at 1 μM
Protocol: as §1, §3

[18] = system: TESK1; experiment: as above; type: biochemical; conditions: at 1 μM
Protocol: as §1, §3

[19] = system: ABL; experiment: as above; type: biochemical; conditions: at 1 μM
Protocol: as §1, §3

[20] = system: MINK1; experiment: as above; type: biochemical; conditions: at 1 μM
Protocol: as §1, §3

[21] = system: TAK1; experiment: as above; type: biochemical; conditions: at 1 μM
Protocol: as §1, §3

[22] = system: IGF1Rβ; experiment: as above; type: biochemical; conditions: not stated whether inhibition or remaining activity
Protocol: as §1, §3

[23] = system: YES1; experiment: as above; type: biochemical; conditions: at 1 μM
Protocol: as §1, §3

[24] = system: mutant BRAF WM266.4 cells; experiment: Cell based phospho-ERK assay; conditions: Homo sapiens, WM 266-4, 6 h, read-out: Cell-Based Phospho-ERK Assay IC50
Protocol: Cell Based Phospho-ERK Assay (Mutant BRAF WM266.4 Cells)
Compounds were assessed using a cell-based assay which was performed according to the following protocol.
Plate out 16,000 mutant BRAF WM266.4 cells/well in 99 μL medium in a 96-well plate.
Add 1 μL test compound to the cells (total 1 μL solution).
Incubate the cells with test compound for 6 hours at 37° C.
Read Europium Time Resolved Fluorescence in Victor2 plate reader (Perkin-Elmer, Turku, Finland).
Note that Europium counts are normalised for protein levels by dividing counts by absorbance.
Values for the blank (no cells) are subtracted from all values. The DMSO controls are set as 100% activity and assay points (the response) are calculated as a percentage of the DMSO control. Data are plotted using Graphpad Prism software and a non-linear regression line is calculated using a variable slope sigmoidal dose-response equation: Y=Bottom+[Top−Bottom]/[1+10^((Log EC50−X)*HillSlope)] where X is the logarithm of concentration and Y is the response). The IC50 generated by this procedure is the concentration of the drug that produces a percentage control fluorescence value midway between the saturation, and zero-effect plateaus. Three independent assays are usually performed and the mean IC50 is reported.

[25] = CHO cells stably transfected with hERG, tail current

Cn1c(=O)[nH]c2nccc(Oc3ccc(NC(=O)Nc4cc(C(C)(C)C)nn4-c4cccc(F)c4)c(F)c3)c21 [AA-04, reference compound]
IC50 [1]: 650 nM

Cc1ccc(-n2nc(C(C)(C)C)cc2NC(=O)Nc2ccc(Oc3ccnc4[nH]c(=O)cnc34)cc2F)cc1 [AA-018, reference compound]
IC50 [2, 25]: > 100000 nM
IC50 [1]: 64 nM

CC(C)(C)c1cc(NC(=O)Nc2ccc(Oc3ccnc4[nH]c(=O)cnc34)cc2F)n(-c2ccccc2)n1 [AA-019, reference compound]
IC50 [2, 25]: > 100000 nM
IC50 [1]: 55 nM

COc1ccc(-n2nc(C(C)(C)C)cc2NC(=O)Nc2ccc(Oc3ccnc4[nH]c(=O)cnc34)cc2F)cn1 [AA-062, reference compound]
IC50 [2, 25]: > 100000 nM
IC50 [1]: 79 nM

Cc1ccc(-n2nc(C(C)(C)C)cc2NC(=O)Nc2ccc(Oc3ccnc4[nH]c(=O)cnc34)cc2F)cn1 [AA-084, reference compound]
IC50 [2, 25]: 53000 nM
IC50 [1]: 710 nM

Clc1ccc(Nc2nnc(Cc3ccncc3)c3ccccc23)cc1 [PTK787/ZK222584]
inhibition of knee swelling [3]: 40%
inhibition of severity scores [3]: 51%

CC(C)(C)c1cc(NC(=O)Nc2ccc(Oc3ccnc4[nH]c(=O)cnc34)cc2F)n(-c2cccc(F)c2)n1 [TBAP-01]
IC50 [4]: 800 nM
IC50 [5]: 470 nM
IC50 [6]: 740 nM
IC50 [7]: 1400 nM
IC50 [8]: 1900 nM
IC50 [9]: 33 nM
IC50 [10]: 19 nM
IC50 [11]: 120 nM
IC50 [12]: 470 nM
IC50 [13]: 220 nM
IC50 [14]: 27 nM
TrkA activity remaining [15]: 6% activity remaining at 1 μM
DDR2 activity remaining [16]: 3% activity remaining at 1 μM
Tie-2 activity remaining [17]: 3% activity remaining at 1 μM
TESK1 activity remaining [18]: 5% activity remaining at 1 μM
ABL activity remaining [19]: 4% activity remaining at 1 μM
MINK1 activity remaining [20]: 4% activity remaining at 1 μM
TAK1 activity remaining [21]: 6% activity remaining at 1 μM
IGF1Rβ % @ 1 μM [22]: 78% @ 1
YES1 activity remaining [23]: 6% activity remaining at 1 μM
IC50 [2, 25]: > 100000 nM
fold more potent than Compound AA-04 on the BRAF kinase assay [1]: 10 fold
IC50 [1]: 62 nM
fold more potent than Compound AA-084 on the BRAF kinase assay ([1]; vs AA-084): 11 fold

Cc1cccc(-n2nc(C(C)(C)C)cc2NC(=O)Nc2ccc(Oc3ccnc4[nH]c(=O)cnc34)cc2F)c1 [TBAP-02]
IC50 [2]: 65000 nM
IC50 [1]: 99 nM

CC(C)(C)c1cc(NC(=O)Nc2ccc(Oc3ccnc4[nH]c(=O)cnc34)cc2F)n(-c2cccc(C(F)(F)F)c2)n1 [TBAP-03]
IC50 [2, 25]: > 100000 nM
IC50 [1]: 130 nM

COc1cccc(-n2nc(C(C)(C)C)cc2NC(=O)Nc2ccc(Oc3ccnc4[nH]c(=O)cnc34)cc2F)c1 [TBAP-04, 1-(3-tert-butyl-1-(3-methoxyphenyl)-1H-pyrazol-5-yl)-3-(2-fluoro-4-(3-oxo-3,4-dihydropyrido[3,2-b]pyrazin-8-yloxy)phenyl)urea]
IC50 [2, 25]: > 100000 nM
IC50 [1]: 47 nM

CC(C)(C)c1cc(NC(=O)Nc2ccc(Oc3ccnc4[nH]c(=O)cnc34)cc2F)n(-c2ccnc(O)c2)n1 [TBAP-05, 1-(3-tert-butyl-1-(2-oxo-1,2-dihydropyridin-4-yl)-1H-pyrazol-5-yl)-3-(2-fluoro-4-(3-oxo-3,4-dihydropyrido[3,2-b]pyrazin-8-yloxy)phenyl)urea]
IC50 [24]: 450 nM
IC50 [1]: 390 nM
